Laboratory results: US20230141887A1, “CRYSTAL FORM OF DIAZASPIROPYRAN COMPOUND” (MEDSHINE DISCOVERY INC., priority 2020, published 2023)
≈ marks a conversion by molar mass, not a printed value.

Legend:
[1] = In vivo pharmacokinetic assay in dogs; design: species or system Male Beagle dogs; conditions: Oral, 30 mg/kg
Experimental: Male Beagle dogs older than 6 months of age were selected. On the day of the assay, the animals were given the corresponding compound by single injection in the cephalic or saphenous vein in a volume of 1 mL/kg for the intravenous group; and by single gavage in a volume of 5 mL/kg for the oral group. The animals were weighed before administration and the dosing volume of the compound was calculated based on their body weight. About 0.5 mL of whole blood was collected from the cephalic or saphenous vein at each time point to prepare plasma for determination of concentrations by high performance liquid chromatography-tandem mass spectrometry (LC-MS/MS). Plasma concentrations were processed using non-compartment model of WinNonlin™ Version 6.3 or above (Pharsight, Mountain View, Calif.) pharmacokinetic software, and pharmacokinetic parameters were calculated using the linear log trapezoidal method.

[2] = tested on: Ba/F3-TEL-FLT3-D835Y subcutaneous allograft tumor; assay: Pharmacodynamics assay of Ba/F3-TEL-FLT3-D835Y cells in mice with subcutaneous allograft tumor; assay type: in vivo; conditions: for Average tumor volume Day 0: Day 0, before dosing; for % Inhibition rate / Average tumor volume Day 15: Oral, Once a day
Experimental: The efficacy of the assay compounds in the BALB/c nude mouse model of subcutaneous allografts of Ba/F3-TEL-FLT3-D835Y cells was evaluated in vivo.
Ba/F3-TEL-FLT3-D835Y cell line was cultured in 1640 medium supplemented with 10% fetal bovine serum and 1% double antibody at 37° C. and 5% CO2, and passaged twice a week. […].
When the cells in the logarithmic growth phase reached the required number for the assay, the cells were harvested, and centrifuged at 1000 rpm for 5 min. The supernatant was removed. The cells were resuspended in culture medium, and counted using a cell counter. […]. After mixing well, the suspension was placed on ice and aspirated with a 1 ml sterile syringe. 0.2 ml of cell suspension was inoculated subcutaneously in the right armpit of each mouse. That is, each mouse was inoculated with 1×10^6 Ba/F3-TEL-FLT3-D835Y cells. After inoculation, the tumor growth was observed day by day. The mice were randomly grouped according to tumor volume when the average tumor volume reached about 175.77 mm^3. Mice were dosed according to their body weight (10 μL/g).
After the start of dosing, the body weight and tumor size of the mice were measured twice a week. Tumor volume was calculated according to the formula: Tumor volume (mm^3)=½×(a×b^2) (where a represents the long diameter and b represents the short diameter).

[3] = In vivo pharmacokinetic assay in rats; design: species or system SD male rats
Experimental: SD male rats aged 7 to 10 weeks were selected. The rats were fasted for at least 12 hours before the administration, and resumed feeding 4 hours after the administration. The rats had free access to water throughout the assay period.
(§1) On the day of the assay, the animals in the intravenous group were administrated the corresponding compound through a single injection in the tail vein at an administration volume of 5 mL/kg; the oral group were administrated the corresponding compound through a single intragastric gavage at an administration volume of 10 mL/kg. The animals were weighed before administration, and the administration volume was calculated based on the body weight. The time for collecting samples was: 0.083 (the injection group), 0.25, 0.5, 1, 2, 4, 6, 8, 24 h. About 200 μL of whole blood was collected from the jugular vein at each time point to prepare plasma for concentration determination by high-performance liquid chromatography-tandem mass spectrometry (LC-MS/MS). All animals were euthanized by CO2 anesthesia after collecting the PK samples at the last time point. The plasma concentrations were processed by non-compartmental model of WinNonlin™ Version 6.3 (Pharsight, Mountain View, Calif.) pharmacokinetic software, and the pharmacokinetic parameters were calculated by the linear logarithm trapezoidal method.

[4] = Assay of solubility (37° C., 24 hours stirring, HPLC); assay type: physicochemical
Experimental: Assay method: The crystal form C of the compound of formula (I) was weighed and added to a 4 mL glass vial, and then 2 mL of solvent was added. The mixture was mixed well and a magnet bar was added to the above suspension. The suspension was stirred on a heater with magnetic stirring (37° C., protected from light). After 24 hours of stirring, a sample was taken. The resulting sample solution was quickly centrifuged. The supernatant was diluted to the appropriate multiple, and the concentration was determined by HPLC (unit: mg/mL).

[5] = In vivo pharmacokinetic assay in mice; design: species or system CD-1 male mice; conditions: male, CD-1, mouse, plasma; for Tmax: read-out: Tmax; for Vd: read-out: Vdss
Experimental: CD-1 male mice aged 7 to 10 weeks were selected. The doses for intravenous and oral administration were 1 mg/kg and 2.5 mg/kg, respectively. The mice were fasted for at least 12 hours before the administration, and resumed feeding 4 hours after the administration. The mice had free access to water throughout the assay period.
as §1, with “4,” for “4, 6,”, “30” for “200”, “saphenous” for “jugular”

[6] = tested on: human biphenotypic B bone marrow mononuclear leukemia cell MV4-11 subcutaneous xenograft tumor; assay: Inhibition of MV4-11 subcutaneous xenograft tumor in vivo; design: species or system nude mice
Experimental: In this assay, the anti-tumor effect of the compounds was evaluated using a nude mice model of subcutaneous xenograft tumor of human biphenotypic B bone marrow mononuclear leukemia cell MV4-11.
Human biphenotypic B bone marrow mononuclear leukemia cell MV4-11 was cultured in vitro in suspension with a RPMI1640 medium supplemented with 10% fetal bovine serum, 100 U/mL penicillin and 100 μg/mL streptomycin in a 5% CO2 cell incubator at 37° C. Routine passaging was performed twice a week. Cells in the logarithmic growth phase were collected, counted and then used for inoculation.
0.2 mL (1×10^7) of MV4-11 cells (plus matrigel, with a volume ratio of 1:1) were inoculated subcutaneously on the right back of each mouse. The grouping and dosing were started when the average tumor volume reached about 140-200 mm^3.
The diameter of the tumor was measured with vernier calipers twice a week. The formula for calculating the tumor volume is: V=0.5a×b^2, where a and b represent the long and short diameters of the tumor, respectively.

[7] = tested on: human acute myeloma MOLM-13 cell line subcutaneous xenograft; assay: Inhibition of Molm-13 subcutaneous xenograft tumor in vivo; design: species or system NOD/SCID female mice; conditions: for Average tumor volume Day 0: Day 0, before dosing; for % Inhibition rate on day 11 / % Inhibition rate on day 15 / Average tumor volume Day 11 / Average tumor volume Day 15: Oral, Once a day
Experimental: The purpose of this assay is to evaluate the pharmacodynamics of the compounds in the NOD/SCID female mice model of human acute myeloma MOLM-13 cell line subcutaneous xenograft.
MOLM-13 cells were cultured in RPMI-1640 medium containing 10% fetal bovine serum. The MOLM-13 cells were collected in the exponential growth phase, and resuspended in PBS to a suitable concentration for subcutaneous tumor inoculation in […].
The assay mice were inoculated with 5×10^6 MOLM-13 cells resuspended in 0.1 ml of PBS (0.1 ml per mouse) subcutaneously on the right back. Tumor growth was regularly observed. When the tumor grew to an average volume of 98 mm^3, the mice were randomly divided into groups and administered according to tumor size and body weight of the mice.
After the start of administration, the body weight and tumor size of the mice were measured three times a week. The formula for calculating the tumor volume is: tumor volume (mm^3)=½×(a×b^2) (where a represents the long diameter and b represents the short diameter).

[8] = Oral administration (2.5 mg/kg)
[9] = male, SD, rat, plasma, Oral, 2.5 mg/kg
[10] = male, SD, rat, plasma, iv, Injection, 1 mg/kg

CCc1nc(C(N)=O)c(Nc2ccc(N3CCC4(CCN(C)CC4)CC3)c(C)c2)nc1NC1CCOCC1
Cmax [1]: 527 nM
F% [1]: 41.0%
Tmax [1]: 9.00 h
Average tumor volume Day 0 ([2]; 1 mg/kg group): 176 ± 2 mm^3
% Inhibition rate ([2]; 1 mg/kg): 62%
Average tumor volume Day 15 ([2]; 1 mg/kg): 1160 ± 99 mm^3
Average tumor volume Day 0 ([2]; 3 mg/kg group): 177 ± 2 mm^3
% Inhibition rate ([2]; 3 mg/kg): 80%
Average tumor volume Day 15 ([2]; 3 mg/kg): 683 ± 45 mm^3
Average tumor volume Day 0 ([2]; 6 mg/kg group): 177 ± 2 mm^3
% Inhibition rate ([2]; 6 mg/kg): 103%
Average tumor volume Day 15 ([2]; 6 mg/kg): 77 ± 13 mm^3
Cmax ([3]; Oral, 20 mg/kg): 483 nM
F% ([3]; Oral, 20 mg/kg): 93%
Tmax ([3]; Oral, 20 mg/kg): 7.00 h
Solubility ([4]; Biological medium FaSSIF, 37° C.): 110 µg/mL (≈ 211 µM)
Solubility ([4]; Biological medium FeSSIF, 37° C.): 1110 µg/mL (≈ 2130 µM)
Solubility ([4]; Biological medium SGF, 37° C.): 1490 µg/mL (≈ 2860 µM)
Solubility ([4]; Buffer solution pH 1.0, 37° C.): >10000 µg/mL
Solubility ([4]; Buffer solution pH 3.8, 37° C.): >10000 µg/mL
Solubility ([4]; Buffer solution pH 4.5, 37° C.): >10000 µg/mL
Solubility ([4]; Buffer solution pH 5.5, 37° C.): 810 µg/mL (≈ 1550 µM)

CCc1nc(C(N)=O)c(Nc2ccc(N3CCC4(CCN(C)CC4)CC3)c(OC)c2)nc1NC1CCOCC1 [Compound A]
AUC(0-t) [5, 8]: 0.0745 µM·h
Cmax [5, 8]: 13.4 nM
bioavailability [5, 8]: 7.39%
half-life [5, 8]: 7.57 h
Tmax [5, 8]: 1 h
AUC(0-t) ([5]; iv, Injection (1 mg/kg)): 0.403 µM·h
clearance ([5]; iv, Injection (1 mg/kg)): 73.4 mL/min/kg
half-life ([5]; iv, Injection (1 mg/kg)): 2.13 h
Vd ([5]; iv, Injection (1 mg/kg)): 8.93 L/kg

CCc1nc(C(N)=O)c(Nc2ccc(N3CCC(N4CCN(C)CC4)CC3)c(OC)c2)nc1NC1CCOCC1 [Compound B, reference compound]
% Inhibition rate on day 14 ([6]; 1.5 mg/kg, Oral, Once a day): 57.7%
Average tumor volume Day 14 ([6]; 1.5 mg/kg, Oral, Once a day, Day 14): 431 mm^3
Average tumor volume Day 0 ([6]; Day 0, one value for all groups, before dosing): 149 mm^3
AUC(0-t) [5, 8]: 0.501 µM·h
Cmax [5, 8]: 85.3 nM
bioavailability [5, 8]: 33.1%
half-life [5, 8]: 5.59 h
Tmax [5, 8]: 1 h
AUC(0-t) ([5]; iv, Injection (1 mg/kg)): 0.605 µM·h
clearance ([5]; iv, Injection (1 mg/kg)): 46.7 mL/min/kg
half-life ([5]; iv, Injection (1 mg/kg)): 2.09 h
Vd ([5]; iv, Injection (1 mg/kg)): 7.47 L/kg
Average tumor volume Day 0 ([2]; 3 mg/kg group): 176 ± 2 mm^3
% Inhibition rate ([2]; 3 mg/kg): 68%
Average tumor volume Day 15 ([2]; 3 mg/kg): 993 ± 79 mm^3
AUC(0-t) [3, 9]: 0.361 µM·h
Cmax [3, 9]: 29.1 nM
bioavailability [3, 9]: 24.6%
Tmax ([3]; male, SD, rat, plasma, Oral, 2.5 mg/kg, read-out: Tmax): 6 h
AUC(0-t) [3, 10]: 0.587 µM·h
clearance [3, 10]: 44 mL/min/kg
half-life [3, 10]: 2.73 h
Vd ([3]; male, SD, rat, plasma, iv, Injection, 1 mg/kg, read-out: Vdss): 10.2 L/kg
Average tumor volume Day 0 ([7]; 15 mg/kg group): 98.02 mm^3
% Inhibition rate on day 11 ([7]; 15 mg/kg): 59%
% Inhibition rate on day 15 ([7]; 15 mg/kg): 79%
Average tumor volume Day 11 ([7]; 15 mg/kg): 401.07 mm^3
Average tumor volume Day 15 ([7]; 15 mg/kg): 566.95 mm^3

CCc1nc(C(N)=O)c(Nc2ccc(N3CCC4(CCN(C)CC4)CC3)c(C)c2)nc1NC1CCOCC1 [Compound of formula (I)]
Average tumor volume Day 0 ([7]; 15 mg/kg group): 98.34 mm^3
% Inhibition rate on day 11 ([7]; 15 mg/kg): 92%
% Inhibition rate on day 15 ([7]; 15 mg/kg): 94%
Average tumor volume Day 11 ([7]; 15 mg/kg): 156.85 mm^3
Average tumor volume Day 15 ([7]; 15 mg/kg): 223.09 mm^3
Average tumor volume Day 0 ([7]; 50 mg/kg group): 98.05 mm^3
% Inhibition rate on day 11 ([7]; 50 mg/kg): 106%
% Inhibition rate on day 15 ([7]; 50 mg/kg): 104%
Average tumor volume Day 11 ([7]; 50 mg/kg): 53.08 mm^3
Average tumor volume Day 15 ([7]; 50 mg/kg): 0 mm^3
